# From publication PMC3361975 (Biochemistry, 2012)
# Read-outs that look alike come from different tables or passages of the source.
# Tested on: PTDH ortholog from Nostoc sp. 7120
# Test: initial rate of NADH formation at […] nm, Michaelis-Menten fit
# Format: biochemical, Nostoc sp. PCC 7120
# Conditions: read-out: Nostoc sp. 7120, 100 mM MOPS pH 7.25, 30 °C
Km (co-substrate phosphite),SMILES,Km (co-substrate NAD+)
,O=[PH](O)O [phosphite],20.2 µM
10.3 µM,NC(=O)c1ccc[n+]([C@@H]2O[C@H](COP(=O)(O)OP(=O)(O)OC[C@H]3O[C@@H](n4cnc5c(N)ncnc54)[C@H](O)[C@@H]3O)[C@@H](O)[C@H]2O)c1 [NAD^+],
